Experimental data as given in patent US20260242419A1, “A CYCLIC PEPTIDE FOR TRAPPING INTERLEUKIN-1 BETA” (Merck Sharp & Dohme LLC, priority 2023, published 2026).
pIC50: −log10 of the molar value. Starred links: 1 amine or outer side, 2 acyl side, 3 side chain; linkers in the order of their positions; H or OH if unused. Non-standard residues stand in square brackets, D forms with d. Residues, ends and D or L forms follow the SMILES beside them. X39 = CNc1ncc(-c2ccc(C[C@H]3CCN([*:1])[C@H]3C(=O)[*:2])cc2)cn1; X1 = COc1ncc(-c2ccc(C[C@H]3CCN([*:1])[C@H]3C(=O)[*:2])cc2)cn1; X22 = Nc1ncc(-c2ccc(C[C@H]3CCN([*:1])[C@H]3C(=O)[*:2])cc2)cn1; X49 = Nc1cnc(-c2ccc(C[C@H]3CCN([*:1])[C@H]3C(=O)[*:2])cc2)cn1; X16 = Cn1cnc(-c2ccc(C[C@H]3CCN([*:1])[C@H]3C(=O)[*:2])cc2)c1; Trp(βS-Me,4-F) = C[C@@H](c1c[nH]c2cccc(F)c12)[C@H](N)C(=O)O; X15 = O=C([C@H]1[C@@H](Cc2ccc(-c3ccnnc3)cc2)CCN1[*:1])[*:2]; X33 = O=C([C@H]1[C@@H](Cc2ccc(-c3ccncc3)cc2)CCN1[*:1])[*:2]; X42 = O=C([C@H]1[C@@H](Cc2ccc(-c3cncnc3)cc2)CCN1[*:1])[*:2]; X48 = O=C([C@H]1[C@@H](Cc2ccc(-c3cccnc3)cc2)CCN1[*:1])[*:2]; Bip(4'-COOH) = N[C@@H](Cc1ccc(-c2ccc(C(=O)O)cc2)cc1)C(=O)O; X18 = Cn1ccnc1-c1ccc(C[C@H]2CCN([*:1])[C@H]2C(=O)[*:2])cc1; X43 = Cc1nocc1-c1ccc(C[C@H]2CCN([*:1])[C@H]2C(=O)[*:2])cc1; X8 = O=C([C@H]1[C@@H](Cc2ccc(-c3ccccn3)cc2)CCN1[*:1])[*:2]; dPro(4R-Bzl(4-F)) = O=C(O)[C@H]1C[C@@H](Cc2ccc(F)cc2)CN1; Ala(pyrimidin-5-yl) = N[C@@H](Cc1cncnc1)C(=O)O; Phe(4-COOH) = N[C@@H](Cc1ccc(C(=O)O)cc1)C(=O)O; Pro(cis-4-F) = O=C(O)[C@@H]1C[C@H](F)CN1; 4Pal = N[C@@H](Cc1ccncc1)C(=O)O; Cit = NC(=O)NCCC[C@H](N)C(=O)O; Dab = NCC[C@H](N)C(=O)O; Aib = CC(C)(N)C(=O)O

Target: T1, IL-1β (Homo sapiens, UniProt P01584)
T1 construct: purchased BioLegend 579404
Experiment: IL-6 assay in MRC5 cells: inhibition of IL-1β induced IL-6 secretion (AlphaLISA)
Format: cell-based
Details: inhibition of IL-1β induced IL-6 secretion in MRC5 cells; read-out: MRC5 IC50
In short: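 Compound was pre-incubated 1 h at ambient temperature with recombinant human IL-1β at 2λ EC80 before adding human lung fibroblast MRC5 cells (3000/well) in EMEM with 0.025% BSA. After overnight culture at 37 °C, 5% CO2, secreted IL-6 in conditioned medium was measured by AlphaLISA; IC50 from 4-parameter logistic fits.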

T1 sequence (P01584 117-269): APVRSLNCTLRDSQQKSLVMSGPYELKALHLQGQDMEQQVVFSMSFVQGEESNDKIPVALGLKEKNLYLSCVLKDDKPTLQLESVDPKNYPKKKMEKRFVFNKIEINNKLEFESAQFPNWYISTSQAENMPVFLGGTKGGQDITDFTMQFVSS

SMILES	pIC50
C[C@@H](c1c[nH]c2cccc(F)c12)[C@@H]1NC(=O)[C@@H]2C[C@H](F)CN2C(=O)CNC(=O)[C@H](Cc2ccc(C(=O)O)cc2)NC(=O)[C@H](Cc2ccncc2)NC(=O)[C@H](Cc2ccc(-c3ccc(C(=O)O)cc3)cc2)NC(=O)[C@H]2C[C@@H](Cc3ccc(F)cc3)CN2C(=O)CNC(=O)[C@H](CCN)NC(=O)[C@H](CCC(N)=O)NC(=O)[C@H](CCCNC(N)=O)NC(=O)C(C)(C)NC(=O)[C@H](Cc2c[nH]c3ccccc23)NC(=O)[C@H](CCC(=O)O)NC(=O)C(C)(C)NC1=O [Example 52] (cyclo([Bip(4'-COOH)][4Pal][Phe(4-COOH)]G[Pro(cis-4-F)][Trp(βS-Me,4-F)][Aib]EW[Aib][Cit]Q[Dab]G[dPro(4R-Bzl(4-F))]))	10.68
C[C@@H](c1c[nH]c2cccc(F)c12)[C@@H]1NC(=O)[C@@H]2C[C@H](F)CN2C(=O)CNC(=O)[C@H](Cc2ccc(C(=O)O)cc2)NC(=O)[C@H](Cc2ccncc2)NC(=O)[C@H](Cc2ccc(-c3ccc(C(=O)O)cc3)cc2)NC(=O)[C@H]2[C@@H](Cc3ccc(-c4cncnc4)cc3)CCN2C(=O)CNC(=O)[C@H](CCN)NC(=O)[C@H](CCC(N)=O)NC(=O)[C@H](Cc2cncnc2)NC(=O)C(C)(C)NC(=O)[C@H](Cc2c[nH]c3ccccc23)NC(=O)[C@H](CCC(=O)O)NC(=O)C(C)(C)NC1=O [Example 53] (cyclo([Bip(4'-COOH)][4Pal][Phe(4-COOH)]G[Pro(cis-4-F)][Trp(βS-Me,4-F)][Aib]EW[Aib][Ala(pyrimidin-5-yl)]Q[Dab]G[X42]))	10.74
CNc1ncc(-c2ccc(C[C@H]3CCN4C(=O)CNC(=O)[C@H](CCN)NC(=O)[C@H](CCC(N)=O)NC(=O)[C@H](Cc5cncnc5)NC(=O)C(C)(C)NC(=O)[C@H](Cc5c[nH]c6ccccc56)NC(=O)[C@H](CCC(=O)O)NC(=O)C(C)(C)NC(=O)[C@H]([C@@H](C)c5c[nH]c6cccc(F)c56)NC(=O)[C@@H]5C[C@H](F)CN5C(=O)CNC(=O)[C@H](Cc5ccc(C(=O)O)cc5)NC(=O)[C@H](Cc5ccncc5)NC(=O)[C@H](Cc5ccc(-c6ccc(C(=O)O)cc6)cc5)NC(=O)[C@@H]34)cc2)cn1 [Example 54] (cyclo([Bip(4'-COOH)][4Pal][Phe(4-COOH)]G[Pro(cis-4-F)][Trp(βS-Me,4-F)][Aib]EW[Aib][Ala(pyrimidin-5-yl)]Q[Dab]G[X39]))	10.68
C[C@@H](c1c[nH]c2cccc(F)c12)[C@@H]1NC(=O)[C@@H]2C[C@H](F)CN2C(=O)CNC(=O)[C@H](Cc2ccc(C(=O)O)cc2)NC(=O)[C@H](Cc2ccncc2)NC(=O)[C@H](Cc2ccc(-c3ccc(C(=O)O)cc3)cc2)NC(=O)[C@H]2[C@@H](Cc3ccc(-c4ccncc4)cc3)CCN2C(=O)CNC(=O)[C@H](CCN)NC(=O)[C@H](CCC(N)=O)NC(=O)[C@H](Cc2cncnc2)NC(=O)C(C)(C)NC(=O)[C@H](Cc2c[nH]c3ccccc23)NC(=O)[C@H](CCC(=O)O)NC(=O)C(C)(C)NC1=O [Example 55] (cyclo([Bip(4'-COOH)][4Pal][Phe(4-COOH)]G[Pro(cis-4-F)][Trp(βS-Me,4-F)][Aib]EW[Aib][Ala(pyrimidin-5-yl)]Q[Dab]G[X33]))	10.62
C[C@@H](c1c[nH]c2cccc(F)c12)[C@@H]1NC(=O)[C@@H]2C[C@H](F)CN2C(=O)CNC(=O)[C@H](Cc2ccc(C(=O)O)cc2)NC(=O)[C@H](Cc2ccncc2)NC(=O)[C@H](Cc2ccc(-c3ccc(C(=O)O)cc3)cc2)NC(=O)[C@H]2[C@@H](Cc3ccc(-c4cccnc4)cc3)CCN2C(=O)CNC(=O)[C@H](CCN)NC(=O)[C@H](CCC(N)=O)NC(=O)[C@H](Cc2cncnc2)NC(=O)C(C)(C)NC(=O)[C@H](Cc2c[nH]c3ccccc23)NC(=O)[C@H](CCC(=O)O)NC(=O)C(C)(C)NC1=O [Example 56] (cyclo([Bip(4'-COOH)][4Pal][Phe(4-COOH)]G[Pro(cis-4-F)][Trp(βS-Me,4-F)][Aib]EW[Aib][Ala(pyrimidin-5-yl)]Q[Dab]G[X48]))	10.66
C[C@@H](c1c[nH]c2cccc(F)c12)[C@@H]1NC(=O)[C@@H]2C[C@H](F)CN2C(=O)CNC(=O)[C@H](Cc2ccc(C(=O)O)cc2)NC(=O)[C@H](Cc2ccncc2)NC(=O)[C@H](Cc2ccc(-c3ccc(C(=O)O)cc3)cc2)NC(=O)[C@H]2[C@@H](Cc3ccc(-c4cnc(N)cn4)cc3)CCN2C(=O)CNC(=O)[C@H](CCN)NC(=O)[C@H](CCC(N)=O)NC(=O)[C@H](Cc2cncnc2)NC(=O)C(C)(C)NC(=O)[C@H](Cc2c[nH]c3ccccc23)NC(=O)[C@H](CCC(=O)O)NC(=O)C(C)(C)NC1=O [Example 57] (cyclo([Bip(4'-COOH)][4Pal][Phe(4-COOH)]G[Pro(cis-4-F)][Trp(βS-Me,4-F)][Aib]EW[Aib][Ala(pyrimidin-5-yl)]Q[Dab]G[X49]))	10.72
C[C@@H](c1c[nH]c2cccc(F)c12)[C@@H]1NC(=O)[C@@H]2C[C@H](F)CN2C(=O)CNC(=O)[C@H](Cc2ccc(C(=O)O)cc2)NC(=O)[C@H](Cc2ccncc2)NC(=O)[C@H](Cc2ccc(-c3ccc(C(=O)O)cc3)cc2)NC(=O)[C@H]2[C@@H](Cc3ccc(-c4ccnnc4)cc3)CCN2C(=O)CNC(=O)[C@H](CCN)NC(=O)[C@H](CCC(N)=O)NC(=O)[C@H](Cc2cncnc2)NC(=O)C(C)(C)NC(=O)[C@H](Cc2c[nH]c3ccccc23)NC(=O)[C@H](CCC(=O)O)NC(=O)C(C)(C)NC1=O [Example 58] (cyclo([Bip(4'-COOH)][4Pal][Phe(4-COOH)]G[Pro(cis-4-F)][Trp(βS-Me,4-F)][Aib]EW[Aib][Ala(pyrimidin-5-yl)]Q[Dab]G[X15]))	10.43
C[C@@H](c1c[nH]c2cccc(F)c12)[C@@H]1NC(=O)[C@@H]2C[C@H](F)CN2C(=O)CNC(=O)[C@H](Cc2ccc(C(=O)O)cc2)NC(=O)[C@H](Cc2ccncc2)NC(=O)[C@H](Cc2ccc(-c3ccc(C(=O)O)cc3)cc2)NC(=O)[C@H]2[C@@H](Cc3ccc(-c4cnc(N)nc4)cc3)CCN2C(=O)CNC(=O)[C@H](CCN)NC(=O)[C@H](CCC(N)=O)NC(=O)[C@H](Cc2cncnc2)NC(=O)C(C)(C)NC(=O)[C@H](Cc2c[nH]c3ccccc23)NC(=O)[C@H](CCC(=O)O)NC(=O)C(C)(C)NC1=O [Example 59] (cyclo([Bip(4'-COOH)][4Pal][Phe(4-COOH)]G[Pro(cis-4-F)][Trp(βS-Me,4-F)][Aib]EW[Aib][Ala(pyrimidin-5-yl)]Q[Dab]G[X22]))	10.74
COc1ncc(-c2ccc(C[C@H]3CCN4C(=O)CNC(=O)[C@H](CCN)NC(=O)[C@H](CCC(N)=O)NC(=O)[C@H](Cc5cncnc5)NC(=O)C(C)(C)NC(=O)[C@H](Cc5c[nH]c6ccccc56)NC(=O)[C@H](CCC(=O)O)NC(=O)C(C)(C)NC(=O)[C@H]([C@@H](C)c5c[nH]c6cccc(F)c56)NC(=O)[C@@H]5C[C@H](F)CN5C(=O)CNC(=O)[C@H](Cc5ccc(C(=O)O)cc5)NC(=O)[C@H](Cc5ccncc5)NC(=O)[C@H](Cc5ccc(-c6ccc(C(=O)O)cc6)cc5)NC(=O)[C@@H]34)cc2)cn1 [Example 60] (cyclo([Bip(4'-COOH)][4Pal][Phe(4-COOH)]G[Pro(cis-4-F)][Trp(βS-Me,4-F)][Aib]EW[Aib][Ala(pyrimidin-5-yl)]Q[Dab]G[X1]))	10.74
C[C@@H](c1c[nH]c2cccc(F)c12)[C@@H]1NC(=O)[C@@H]2C[C@H](F)CN2C(=O)CNC(=O)[C@H](Cc2ccc(C(=O)O)cc2)NC(=O)[C@H](Cc2ccncc2)NC(=O)[C@H](Cc2ccc(-c3ccc(C(=O)O)cc3)cc2)NC(=O)[C@H]2[C@@H](Cc3ccc(-c4ccccn4)cc3)CCN2C(=O)CNC(=O)[C@H](CCN)NC(=O)[C@H](CCC(N)=O)NC(=O)[C@H](Cc2cncnc2)NC(=O)C(C)(C)NC(=O)[C@H](Cc2c[nH]c3ccccc23)NC(=O)[C@H](CCC(=O)O)NC(=O)C(C)(C)NC1=O [Example 61] (cyclo([Bip(4'-COOH)][4Pal][Phe(4-COOH)]G[Pro(cis-4-F)][Trp(βS-Me,4-F)][Aib]EW[Aib][Ala(pyrimidin-5-yl)]Q[Dab]G[X8]))	10.66
Cc1nocc1-c1ccc(C[C@H]2CCN3C(=O)CNC(=O)[C@H](CCN)NC(=O)[C@H](CCC(N)=O)NC(=O)[C@H](Cc4cncnc4)NC(=O)C(C)(C)NC(=O)[C@H](Cc4c[nH]c5ccccc45)NC(=O)[C@H](CCC(=O)O)NC(=O)C(C)(C)NC(=O)[C@H]([C@@H](C)c4c[nH]c5cccc(F)c45)NC(=O)[C@@H]4C[C@H](F)CN4C(=O)CNC(=O)[C@H](Cc4ccc(C(=O)O)cc4)NC(=O)[C@H](Cc4ccncc4)NC(=O)[C@H](Cc4ccc(-c5ccc(C(=O)O)cc5)cc4)NC(=O)[C@@H]23)cc1 [Example 62] (cyclo([Bip(4'-COOH)][4Pal][Phe(4-COOH)]G[Pro(cis-4-F)][Trp(βS-Me,4-F)][Aib]EW[Aib][Ala(pyrimidin-5-yl)]Q[Dab]G[X43]))	10.68
C[C@@H](c1c[nH]c2cccc(F)c12)[C@@H]1NC(=O)[C@@H]2C[C@H](F)CN2C(=O)CNC(=O)[C@H](Cc2ccc(C(=O)O)cc2)NC(=O)[C@H](Cc2ccncc2)NC(=O)[C@H](Cc2ccc(-c3ccc(C(=O)O)cc3)cc2)NC(=O)[C@H]2[C@@H](Cc3ccc(-c4nccn4C)cc3)CCN2C(=O)CNC(=O)[C@H](CCN)NC(=O)[C@H](CCC(N)=O)NC(=O)[C@H](Cc2cncnc2)NC(=O)C(C)(C)NC(=O)[C@H](Cc2c[nH]c3ccccc23)NC(=O)[C@H](CCC(=O)O)NC(=O)C(C)(C)NC1=O [Example 63] (cyclo([Bip(4'-COOH)][4Pal][Phe(4-COOH)]G[Pro(cis-4-F)][Trp(βS-Me,4-F)][Aib]EW[Aib][Ala(pyrimidin-5-yl)]Q[Dab]G[X18]))	10.74
C[C@@H](c1c[nH]c2cccc(F)c12)[C@@H]1NC(=O)[C@@H]2C[C@H](F)CN2C(=O)CNC(=O)[C@H](Cc2ccc(C(=O)O)cc2)NC(=O)[C@H](Cc2ccncc2)NC(=O)[C@H](Cc2ccc(-c3ccc(C(=O)O)cc3)cc2)NC(=O)[C@H]2[C@@H](Cc3ccc(-c4cn(C)cn4)cc3)CCN2C(=O)CNC(=O)[C@H](CCN)NC(=O)[C@H](CCC(N)=O)NC(=O)[C@H](Cc2cncnc2)NC(=O)C(C)(C)NC(=O)[C@H](Cc2c[nH]c3ccccc23)NC(=O)[C@H](CCC(=O)O)NC(=O)C(C)(C)NC1=O [Example 64] (cyclo([Bip(4'-COOH)][4Pal][Phe(4-COOH)]G[Pro(cis-4-F)][Trp(βS-Me,4-F)][Aib]EW[Aib][Ala(pyrimidin-5-yl)]Q[Dab]G[X16]))	10.85
